Data as given in patent US20090036527A1, “Therapeutic Application Of Leonurine In Treating Cardiomyopathy” (priority 2007, published 2009).
Where two headings read alike, the source gives them in different places.

Key:
[1] = Acta Physiologica Sinica 2007; cited from earlier work
myocardial cells [2] = assay: MDA content of myocardial cells under hypoxia (TBA method); format: cell-based, rat; conditions: 10^−6 mol/L
Procedure: Myocardial cell samples were obtained from the same procedure of Example 1B, and the experiments were performed same as Example 1B with the same dosages and same conditions. Oxygen free radicals produced by enzyme and non enzyme systems in an organism attack poly unsaturated fatty acid in biomembrane, inducing lipid peroxidation and producing MDA (malondialdehyde). MDA can react with thiobarbituric acid (TBA), forms red product, which can be detected in spectrophotometer at 532 nm. The level of MDA can be used to indicate lipid peroxidation, thereby reflect condition of cell injury.

myocardial cells [3] = assay: Myocardial cell viability (MTT) after hypoxia; format: cell-based, rat; conditions: hypoxia 6 hours; 10^−6 mol/L; vs vehicle (MI) group; p<0.01
Procedure: The heart sample of 3 day old Sprague-Dawley (SD) rat (first generation) was washed in PBS (phosphate balanced solution) under sterilized condition. The sample is digested in 0.08% pancreatic enzyme solution 37 degree C for 10 minutes in a flask, wherein the solution was stirred constantly. In order to stop the digestion, serum was added into the flask and mixed with the solution. The digesting process was repeated 8 times, and the supernatant of each digestion was collected. The supernatant was centrifuged 2,000/minute for 5 minutes, and the myocardial cells were collected each time. The myocardial cell density was adjusted to 10^6/sample and cultured in DMEM containing 10% calf serum for 3 days.
The cultured myocardial cells were divided into the following groups:
Control group, no Leonurine treatment, no hypoxia process.
Hypoxia (vehicle, MI) group, no Leonurine treatment, under hypoxia condition for 6 hours.
Leonurine group, under hypoxia condition for 6 hours then cultured with corresponding treatment of Leonurine 10^−6 mol/L. […]
Myocardial cell viability was assessed by MTT method, which is the measurement of the reduction of 3-(4,5-dimethylthiazol-2-yl)-2,5-diphenyltetrazolium bromide (MTT). […] The amount of formazan was measured using a microplate reader at spectrum 570 nm.

myocardial ischemic rat [4] = assay: Plasma LDH and CK levels in MI rat model; format: in vivo; conditions: MI rats; 7.5 or 15 mg/Kg/day intraperitoneal; p<0.05
Procedure: MI injuries myocardial cells and CK and LDH levels are increased in the serum of the animals. After MI, the animal plasma CK level and LDH level were measured, and Leonurine's effects were assessed. Same MI models in same rat groups as Experiment 2A were established. Plasma CK levels were detected with diagnostic kit (NJBI, China) according to the instructions. LDH were determined colorimetrically with a spectrophotometer. […] (FIG. 7 and FIG. 8)

Bcl-2 and Bax = Bcl-2 and Bax mRNA and protein levels in MI rat model; format: in vivo; conditions: MI rats; 7.5 or 15 mg/Kg/day intraperitoneal
Source text: Bax is a gene promoting cell apoptosis. Bcl-2 is an anti apoptosis gene. Same MI models in same rat groups as Experiment 2A were established. mRNA and protein levels of Bax and Bcl-2 were detected. […] (FIG. 11 and FIG. 12)

myocardial cells [5] = assay: SOD and CuZn-SOD activities of myocardial cells under hypoxia; format: cell-based, rat; conditions: 10^−6 mol/L
Procedure: Myocardial cell samples were obtained from the same procedure of Example 1B, and the experiments were performed same as Example 1B with the same dosages and same conditions. SOD (superoxide dismutase) plays an important role in balancing oxidant and antioxidant system in an organism. SOD can eliminate superoxide free radicals, thereby protect cells from injury. The activities of SOD and CuZn-SOD in Leonurine treated hypoxia cells are elevated. […] (FIG. 4)

myocardial ischemic rat [6] = assay: Infarct size (TTC staining) and mortality in MI rat model (coronary artery ligation); format: in vivo; conditions: MI rats, 7.5 or 15 mg/Kg/day intraperitoneal, vs saline
myocardial ischemic rat [7] = assay: Plasma MDA level and left ventricle SOD activity in MI rat model; format: in vivo; conditions: MI rats; 7.5 or 15 mg/Kg/day intraperitoneal
Source text: MDA reflect lipid peroxidation level in MI injuries myocardial cells. SOD plays an important role in balancing oxidant and antioxidant system in an organism. SOD can eliminate superoxide free radicals, thereby protect cells from injury. Same MI models in same rat groups as Experiment 2A were established. Plasma MDA level and left ventricle SOD activity were detected. […] (FIG. 9 and FIG. 10)

[8] = Plasma Leonurine, cysteine and ascorbic acid levels (capillary electrophoresis) in rat heart failure model; format: in vivo; conditions: HF rats; for plasma Ascorbic acid level / plasma Cysteine level: 8 weeks; for concentration at 8 weeks: rat, plasma, oral, read-out: plasma Leonurine level
Procedure: (§1) Heart failure (HF) animal model, which was occlusive ligation of anterior descending coronary artery, was employed. All treatment was given via intragastric administration. The experimental period was 8 weeks. HF was induced on day eight by ligation of the left anterior descending coronary artery at approximately 2-3 mm from its origin. Briefly, the rats were anesthetized with 7% choral hydrate (60 mg/kg), endotracheally intubated and mechanically ventilated with room air, respiratory rate 100 breaths/min, tidal volume 2.5 ml with a rodent ventilator (DHX-150, China). ECG was recorded in the anaesthetized animal for a period of one minute using the Animal Mflab200 amplifier (Produced in China) as controls. A left thoracotomy was performed and the third intercostal space was exposed. The proximal left anterior descending coronary artery, which supplies blood to left ventricle of the heart, was ligated at the position 2-3 mm from the aorta with a 5-0 atraumatic suture that was passed through the superficial layers of myocardium, between the left auricle and the cone of pulmonary artery. […] Then incisions were sutured and the chests were closed. Sham operated rats were prepared in the same manner except the left coronary was not ligated. After completion of the surgical procedures, rats were removed from the ventilator and the endotracheal tube removed. The rats were kept warm, given water and food after they were awake from the anesthesia and kept in different cages according to experiment groups. The rats in correspondent experiment groups were given corresponding dosages of Leonurine continuously for 8 weeks, while the rats in control and MI groups were given no Leonurine. Two days after ligation, surviving rats were performed in four groups of rats in random fashion. Group 1: Sham-operated rats. The rats served as controls and received saline throughout the study. Group 2: Heart failure rats. This group consisted of rats with heart failure that received saline. Group 3: Heart failure plus low dose leonorine (15 mg/kg/day). Group 4: Heart failure plus high dose leonorine (30 mg/kg/day). All treatment was given via intragastric administration. The experimental period was 8 weeks. To evaluate the effect of Leonurine on HF, catheterizations to arteries and ventricles are performed to record heat rate (HR), mean aortic pressure (MAP), Left Ventricular Systolic Pressure (LVSP), Left Ventricular End-Diastolic Pressure (LVEDP), peak positive first derivative of left ventricular pressure (+dP/dt), peak negative first derivative of left ventricular pressure (−dP/dt). Data from the measurement of the recording were analyzed to observe the effect of Leonurine. Furthermore, plasma cysteine level and plasma ascorbic acid level were measured by capillary electrophoresis.

myocardial cells [9] = assay: Catalase activity of myocardial cells under hypoxia; format: cell-based, rat; conditions: 10^−6 mol/L
Procedure: Myocardial cell samples were obtained from the same procedure of Example 1B, and the experiments were performed same as Example 1B with the same dosages and same conditions. Catalase can catalyze oxygen free radicals, its activity in Leonurine treated hypoxia cells groups is elevated. (FIG. 3)

myocardial cells [10] = assay: LDH leakage (release) from hypoxia injured myocardial cells; format: cell-based, rat; conditions: hypoxia 6 hours; 10^−6 mol/L; vs vehicle (hypoxia) group; p<0.01
Procedure: Myocardial cell samples were obtained from the same procedure of Example 1A, the experiment groups were divided and hypoxia experiments were performed on Control group (no Leonurine treatment, no hypoxia/reoxygenation process), vehicle (hypoxia) group (no Leonurine treatment, under hypoxia condition for 6 hours), and Leonurine group (10^−6 mol/L). Myocardial cells were obtained from each sample (10^6 myocardial cells/sample) from the Control group, vehicle (hypoxia) group, Leonurine group. The cells were lysed under sterilized condition, and LDH (Lactate Dehydrogenase) contents in each sample of the cells were tested by pyruvic acid production method, using LDH content in Control sample cells as standard of 100%. The rate of LDH leakage (release) was calculated, which is the difference between LDH content of Control group samples and vehicle (hypoxia) group or Leonurine group or Losartan group.

creatine kinase (CK) = conditions: concentration- and time-dependent; Zhao Wang et al. 2004; cited from earlier work
[11] = tested on: vascular smooth muscle cells; conditions: Chen and Kwan, Life Sciences 2001; cited from earlier work
[12] = tested on: animal heart failure model; assay: Cardiac function by catheterization in rat heart failure model; format: in vivo; conditions: HF rats, 8 weeks
Procedure: as §1

COc1cc(C(=O)OCCCCNC(=N)N)cc(OC)c1O [Kardigen]
anti-oxidative effects [1]: has anti-oxidative effects | prevention of ischemia cardiomyopathy [1]: can prevent ischemia cardiomyopathy effectively

COc1cc(C(=O)OCCCCNC(=N)N)cc(OC)c1O [Leonurine]
MDA level from lipid peroxidation (myocardial cells [2]): inhibited | survival rate of myocardial cell (cell viability) (myocardial cells [3]): significantly increase | plasma CK level (myocardial ischemic rat [4]): significantly reduce | plasma LDH level (myocardial ischemic rat [4]): significantly reduce | Bax mRNA expression (Bcl-2 and Bax): significantly reduce | Bax protein expression (Bcl-2 and Bax): significantly reduce | Bcl-2 mRNA expression (Bcl-2 and Bax): increase | Bcl-2 protein expression (Bcl-2 and Bax): increase | CuZn-SOD activity (myocardial cells [5]): elevated | SOD activity (myocardial cells [5]): elevated | infarct size of myocardium (myocardial ischemic rat [6]; 7 days before and 2 days after ligation): significantly less | mortality rate (myocardial ischemic rat [6]): not difference | left ventricle SOD activity (myocardial ischemic rat [7]): increase | plasma MDA level (myocardial ischemic rat [7]): significantly reduce | plasma Ascorbic acid level ([8]; 15 mg/kg/day intragastric): 26.02 ± 3.95 µmol/L | plasma Cysteine level ([8]; 15 mg/kg/day intragastric): 31.3 ± 21.32 µmol/L | plasma Ascorbic acid level ([8]; 30 mg/kg/day intragastric): 39.79 ± 4.33 µmol/L | plasma Cysteine level ([8]; 30 mg/kg/day intragastric): 35.29 ± 9.73 µmol/L | concentration at 8 weeks ([8]; 15 mg/kg/day intragastric): 7.42 ± 3.13 µM | concentration at 8 weeks ([8]; 30 mg/kg/day intragastric): 48 ± 11 µM | Catalase activity (myocardial cells [9]): elevated | LDH leaking (release) rate (myocardial cells [10]): lower | activity of creatine kinase (CK) (creatine kinase (CK)): inhibits the enzyme activity | contraction of the smooth muscle cells [11]: inhibiting | intracellular calcium ion release and outside calcium ion influx through calcium channels [11]: inhibits | HR ([12]; 15 mg/kg/day intragastric): 441 ± 29 beats/min | LVEDP ([12]; 15 mg/kg/day intragastric): 11.53 ± 1.83 mmHg | LVSP ([12]; 15 mg/kg/day intragastric): 143.77 ± 26.82 mmHg | MAP ([12]; 15 mg/kg/day intragastric): 107.86 ± 31.23 mmHg | dP/dt ([12]; 15 mg/kg/day intragastric): 4205 ± 412.71 mmHg/s | −dP/dt ([12]; 15 mg/kg/day intragastric): −4368.83 ± 662.12 mmHg/s | HR ([12]; 30 mg/kg/day intragastric): 427 ± 78 beats/min | LVEDP ([12]; 30 mg/kg/day intragastric): 13 ± 5.96 mmHg | LVSP ([12]; 30 mg/kg/day intragastric): 126.37 ± 2.28 mmHg | MAP ([12]; 30 mg/kg/day intragastric): 92.59 ± 10.91 mmHg | dP/dt ([12]; 30 mg/kg/day intragastric): 4095 ± 433.45 mmHg/s | −dP/dt ([12]; 30 mg/kg/day intragastric): −3276.62 ± 283.77 mmHg/s

CCCCc1nc(Cl)c(CO)n1Cc1ccc(-c2ccccc2-c2nn[nH]n2)cc1 [Losartan, reference compound]
LDH leaking (release) rate (myocardial cells [10]): lower
